Data as given in US20040096481A1, “Pet food compositions having electrostatically charged ingredient” (priority 2002, published 2004).

Test: Effect of negatively charged amino acid solutions on integrity of cat hair (scan microscope)
Conditions: 0.40 g cat hair in 100 g solution, 100° F., 24 hours, 810× magnification; for degree of hair damage, 0.125% solution: 0.125% amino acid solution diluted from 1.0% solution adjusted to pH 11.3
Protocol: In this example, various negatively charged amino acid solutions were prepared for testing on cat hair to determine how the solution affected the integrity of the hair. First, a 1.0% amino acid solution was prepared by mixing 5.0 g amino acid with 495 g of water. The resulting pH value of each amino acid solution at this point differed, based largely upon the different pK values for each amino acid. A sufficient quantity of sodium hydroxide solution (50.0%) was added to the 1.0% amino acid solution to adjust the pH to 11.3. Weaker amino acid solutions (0.5%, 0.25%, and 0.125%) were subsequently prepared by dilution of the 1.0% solution.
Approximately 0.40 g of cat hair were mixed with 100 g samples of each respective amino acid solution. The cat hair and amino acid solution were kept at 100° F. for 24 hours. Photographs of the cat hairs were taken with a Topcon Technology Company Model ISI-X408 electrical scan microscope at 810× magnification and the degree of hair damage and loss of identifying characteristics was noted.

Row | SMILES | degree of hair damage, 0.125% solution | also measured
1 | NCC(=O)O [Glycine] | Cuticle removed | degree of hair damage, 0.125% solution (listed as glycine): portions of the cuticle layer have been removed thereby exposing the inner cortex layer; degree of hair damage, 0.25% solution (0.25% amino acid solution diluted from 1.0% solution adjusted to pH 11.3): cuticle 14 has separated thereby forming a channel and exposing the hair cortex; degree of hair damage, 0.5% solution (0.5% amino acid solution diluted from 1.0% solution adjusted to pH 11.3): Portions of the hair cortex 18 have been completely dissolved; degree of hair damage, 1.0% solution (1.0% amino acid solution adjusted to pH 11.3): cuticle has been removed thereby exposing the hair cortex
2 | N[C@@H](CS)C(=O)O [Cysteine] | No damage | –
3 | C[C@H](N)C(=O)O [Alanine] | Cuticle removed | –
4 | N[C@@H](CCC(=O)O)C(=O)O [Glutamic acid] | Cuticle removed | –
5 | NCCCC[C@H](N)C(=O)O [Lysine] | No damage | –
6 | N[C@@H](CC(=O)O)C(=O)O [Aspartic acid] | Cuticle removed | –
7 | CSCCC(N)C(=O)O (racemic) [DL-methionine] | No damage | –
8 | O=C(O)[C@@H]1CCCN1 [Proline] | Cuticle removed | –
